Counter-ions that a name gives are not always drawn.
Tests used:
[1] = test system: gravid White New Zealand female rabbits; experiment: Teratogenicity in gravid White New Zealand rabbits; type: in vivo, rabbit; details: day 5 to day 18 of gestation; for Affected foetuses, %: normal limit 1.5%
Description: The protocol used comprised administering to gravid White New Zealand female rabbits (weighing each about 2900-3000 grams before gestation) a daily dose of 0 (batch of control animals), 5,10 or 50 mg/kg of each product to be tested by gastrogavage from day 5 to day 18 of gestation, then carrying out a cesarean operation on day 29 of gestation in order to enumerate:
(i) the total number of foestuses, and
(ii) the total number of foestuses presenting at least one malformation.
To appreciate the results of such a protocol it must be noted that natural malformations may occur. Statistically, the percentage of foetuses presenting at least one malformation in any control batch of gravid White New Zealand female rabbits is lower than or equal to 1.5% with respect to the total number of foetuses.
To be precise in this protocol a malformation comprises at least one of the following cases: articular limb blocade, anorous foetus, deviated tail, shorter tail, skull deformation, exemcephalia.

[2] = pH of solutions in distilled water; type: physicochemical
Description: The neuropsychopharmacological study was undertaken according to the procedures described above for CRL 41 153, CRL 41 213 being adminstered intraperitoneally, in solution in distilled water, in a volume of 20 ml/kg to male mice and a volume of 5 ml/kg to male rats, and the pH of the injected solution varying with the concentration of CRL 41 213 according to the data given in Table II below.

CNS = experiment: Neuropsychopharmacological profile as a whole; type: in vivo, mice and rats; details: conclusion of the tests
Description: In the neuropsychopharmacological study which follows, a solution of CRL 41 153 in distilled water (pH 1.5) was administered intraperitoneally in a volume of 20 ml/kg to male mice and 5 ml/kg to male rats.

mice = experiment: Interaction with barbital; type: in vivo, mouse; details: i.p., barbital 220 mg/kg
Description: Half an hour after the administration of CRL 41 153, groups of 10 mice receive an intraperitoneal injection of barbital (220 mg/kg).

| Structure (SMILES) | Affected foetuses, number ([1]; 10 mg/kg daily) | Total foetuses (live) ([1]; 10 mg/kg daily) | Affected foetuses, % ([1]; 10 mg/kg daily) [%] | further results |
| --- | --- | --- | --- | --- |
| CC(C)NCCCC(=O)c1ccc(N)cc1 [A 1, reference compound] | 4 | 87 | 4.59 |  |
| CC(C)(C)NCCCC(=O)c1ccc(N)cc1 [A 2, reference compound] | 4 | 85 | 4.70 |  |
| CC(C)NCCCC(=O)c1cc(Cl)c(N)c(Cl)c1 [A 3, reference compound] | 5 | 82 | 6.09 |  |
| Nc1ccc(C(=O)CCCN2CCCCC2)cc1 [A 5, reference compound] | 4 | 87 | 4.59 | Affected foetuses, number ([1]; 5 mg/kg daily): 3; Total foetuses (live) ([1]; 5 mg/kg daily): 81; Affected foetuses, % ([1]; 5 mg/kg daily): 3.70% |
| Nc1ccc(C(=O)CCCN2CCCC2)cc1 [A 6, reference compound] | 5 | 86 | 5.81 | Affected foetuses, number ([1]; 5 mg/kg daily): 0; Total foetuses (live) ([1]; 5 mg/kg daily): 89; Affected foetuses, % ([1]; 5 mg/kg daily): 0% |
| CCNCCC(=O)c1ccc(N)cc1 [A 7, reference compound] | 4 | 79 | 5.06 | Affected foetuses, number ([1]; 5 mg/kg daily): 1; Total foetuses (live) ([1]; 5 mg/kg daily): 80; Affected foetuses, % ([1]; 5 mg/kg daily): 1.25% |
| CN(C)CCC(=O)c1ccc(N)cc1 [A 8, reference compound] | 5 | 81 | 6.17 |  |
| Nc1ccc(C(=O)CCN2CCOCC2)cc1 [A 9, reference compound] | 0 | 94 | 0 | Affected foetuses, number ([1]; 5 mg/kg daily): 1; Total foetuses (live) ([1]; 5 mg/kg daily): 86; Affected foetuses, % ([1]; 5 mg/kg daily): 1.16%; Affected foetuses, number ([1]; 50 mg/kg daily): 6; Total foetuses (live) ([1]; 50 mg/kg daily): 82; Affected foetuses, % ([1]; 50 mg/kg daily): 7.31% |
| Nc1ccc(C(=O)CCN2CCCCC2)cc1 [A 10, reference compound] | 4 | 78 | 5.12 |  |
| CN1CCN(CCC(=O)c2ccc(N)cc2)CC1 [A 11, reference compound] | 6 | 80 | 7.50 |  |
| Nc1ccc(C(=O)CCNC2CC2)cc1 [A 12, reference compound] |  |  |  | Affected foetuses, number ([1]; 5 mg/kg daily): 2; Total foetuses (live) ([1]; 5 mg/kg daily): 75; Affected foetuses, % ([1]; 5 mg/kg daily): 2.66% |
| Nc1ccc(C(=O)CCN2CCSCC2)cc1 [A 13, reference compound] | 12 | 43 | 27.90 |  |
| CC(C)NCC(=O)c1ccc(N)cc1 [A 14, reference compound] | 3 | 76 | 3.94 |  |
| CC(C)NCC(=O)c1cccc(N)c1 [A 15, reference compound] | 14 | 52 | 26.92 |  |
| Nc1ccc(C(=O)CN2CCOCC2)cc1 [A 16, 1-(4-aminophenyl)-2-morpholinylethanone, reference compound] | 13 | 50 | 26.0 | Affected foetuses, number ([1]; 5 mg/kg daily): 3; Total foetuses (live) ([1]; 5 mg/kg daily): 81; Affected foetuses, % ([1]; 5 mg/kg daily): 3.70% |
| Nc1cccc(C(=O)CN2CCOCC2)c1 [A 17, reference compound] | 11 | 46 | 23.91 | Affected foetuses, number ([1]; 5 mg/kg daily): 2; Total foetuses (live) ([1]; 5 mg/kg daily): 77; Affected foetuses, % ([1]; 5 mg/kg daily): 2.59% |
| Nc1ccc(C(=O)CN2CCCCC2)cc1 [A 18, reference compound] | 10 | 51 | 19.60 | Affected foetuses, number ([1]; 5 mg/kg daily): 4; Total foetuses (live) ([1]; 5 mg/kg daily): 80; Affected foetuses, % ([1]; 5 mg/kg daily): 5.0% |
| Nc1cccc(C(=O)CN2CCCCC2)c1 [A 19, reference compound] | 3 | 62 | 4.83 |  |
| Nc1ccc(C(=O)CN2CCCC2)cc1 [A 20, reference compound] | 5 | 74 | 8.10 |  |
| Nc1cccc(C(=O)CN2CCCC2)c1 [A 21, reference compound] | 4 | 78 | 5.12 |  |
| CCC1CCCCN1C(C)C(=O)c1ccc(N)c(Br)c1 (stereo not drawn) [A 22, 1-(4-amino-3-bromophenyl)2-(2-ethylpiperidino)propanone, reference compound] | 13 | 46 | 28.26 |  |
| CC(C(=O)c1ccc(N)cc1)N1CCN(C)CC1 (stereo not drawn) [CRL 41 243] |  |  |  | pH ([2]; 0.1 g/liter in distilled water): 5.0; pH ([2]; 0.2 g/liter in distilled water): 4.5; pH ([2]; 0.4 g/liter in distilled water): 4.0; pH ([2]; 0.8 g/liter in distilled water): 3.5; pH ([2]; 3.2 g/liter in distilled water): 2.5; pH ([2]; 6.4 g/liter in distilled water): 2.0; pH ([2]; 25 g/liter in distilled water): 1.5; pH ([2]; 50 g/liter in distilled water): 1.0; pH ([2]; ≤0.05 g/liter in distilled water): 5.5; Antidepressant effects (overall) (CNS): modest antidepressant effects; Sedative effects (overall) (CNS): moderate sedative effects; Affected foetuses, number ([1]; 50 mg/kg daily): 0; Total foetuses (live) ([1]; 50 mg/kg daily): 87; Affected foetuses, % ([1]; 50 mg/kg daily): 0%; Duration of the sleep induced by barbital (mice): at strong doses reduces the duration of the sleep induced by barbital |
| CC(C)NC(C)C(=O)c1cccc(N)c1 (stereo not drawn) [CRL 41 255] | 1 | 89 | 1.12 |  |
| CC(C(=O)c1cccc(N)c1)N(C)C (stereo not drawn) [CRL 41 260] | 1 | 87 | 1.14 |  |
| CC(C(=O)c1cccc(N)c1)N1CCCCC1 (stereo not drawn) [CRL 41 263, 1-(3-aminophenyl)-2-piperidinopropanone dihydrochloride] | 0 | 92 | 0 |  |
| CC(C(=O)c1cccc(N)c1)N1CCOCC1 (stereo not drawn) [CRL 41 268] | 1 | 91 | 1.11 |  |
| CCCNC(C)C(=O)c1cccc(N)c1 (stereo not drawn) [CRL 41 278] | 1 | 92 | 1.08 |  |

Reference: patent US4980377A, “1-(aminophenyl)-2-aminopropanone derivatives” (Laboratoire L. Lafon, priority 1984, dated 1990)
